Experimental data taken from PubChem BioAssay (NCI).
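96-well plates; 48 h exposure; 5 concentrations. Endpoints by linear interpolation between flanking doses. Not reached: highest tested concentration assigned. At the GI50, growth is halved. Definition used: TGI = concentration required for complete inhibition of growth.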

Experiments:
Test in all cases: inhibition of tumour cell growth, NCI panel, 48 h
A498 renal = test system: A498 renal
HCC-2998 colon = test system: HCC-2998 colon
HOP-62 NSCLC = test system: HOP-62 NSCLC
NCI-H23 lung = test system: NCI-H23 lung
RXF 393 renal = test system: RXF 393 renal
SF-268 CNS = test system: SF-268 CNS
SN12C renal = test system: SN12C renal
SNB-19 CNS = test system: SNB-19 CNS
UACC-257 melanoma = test system: UACC-257 melanoma
SK-MEL-2 melanoma = test system: SK-MEL-2 melanoma

| Structure (SMILES) | TGI (A498 renal) | TGI (HCC-2998 colon) | TGI (HOP-62 NSCLC) | TGI (NCI-H23 lung) | TGI (RXF 393 renal) | TGI (SF-268 CNS) | TGI (SN12C renal) | TGI (SNB-19 CNS) | TGI (UACC-257 melanoma) | GI50 (A498 renal) | GI50 (HOP-62 NSCLC) | GI50 (NCI-H23 lung) | GI50 (RXF 393 renal) | GI50 (SF-268 CNS) | GI50 (SK-MEL-2 melanoma) | TGI (SK-MEL-2 melanoma) | GI50 (SN12C renal) | GI50 (UACC-257 melanoma) | GI50 (HCC-2998 colon) | GI50 (SNB-19 CNS) |
| --- | --- | --- | --- | --- | --- | --- | --- | --- | --- | --- | --- | --- | --- | --- | --- | --- | --- | --- | --- | --- |
| NC(N)=NS(=O)(=O)c1ccc(NC(=O)c2cccn3c(=O)c4ccccc4nc23)cc1 | > 100 µM | > 100 µM | > 100 µM | > 100 µM | > 100 µM | > 100 µM | > 100 µM | > 100 µM | 58.7 µM |  |  |  |  |  |  |  |  |  |  |  |
| [O-]c1ccccc1[C-]=Nc1ccccc1O.[O-]c1ccccc1[C-]=Nc1ccccc1O.[O]=[U]=[O] | 46.6 µM |  | 57.4 µM | 76.5 µM | 45.5 µM | 58.1 µM | 35.4 µM |  | 26.3 µM | 22.8 µM | 19.9 µM | 11.3 µM | 20.1 µM | 11.3 µM | 13.2 µM | 37.3 µM | 10 µM | 3.9 µM |  |  |
| CN1CCN2c3ccccc3CC(C#N)(C#N)C2C1 (centres undefined) | > 100 µM | > 100 µM |  | > 100 µM | > 100 µM | > 100 µM | > 100 µM | > 100 µM | > 100 µM |  |  |  |  |  |  | > 100 µM |  |  |  |  |
| Nc1ncnc2c1ncn2C1OC(CO)CC1O (centres undefined) |  | 43.7 µM | > 100 µM | > 100 µM | > 100 µM | > 100 µM | 80.2 µM | > 100 µM | > 100 µM |  |  |  |  |  |  |  |  |  |  |  |
| O=C1C2c3[nH]c4ccccc4c3C3CCC(c4ccccc4)CC3C2C(=O)N1c1ccccc1 (centres undefined) |  | > 100 µM |  | > 100 µM | > 100 µM | > 100 µM | > 100 µM | > 100 µM |  |  |  |  |  |  |  |  |  |  |  |  |
| N#CC1=C(c2ccccc2)NN(Cc2ccccc2)C(c2ccc(Cl)cc2)CC1=O (centres undefined) | > 100 µM |  |  | > 100 µM | 98.2 µM | > 100 µM |  | 72.8 µM | > 100 µM |  |  |  |  |  |  | > 100 µM |  |  |  |  |
| CN(C)c1ccc(/C=N/NC(=O)CSc2nc3sc4c(c3c(=O)n2-c2ccccc2)CCCCC4)cc1 |  | > 100 µM | 20.2 µM | > 100 µM | 15.2 µM | > 100 µM | > 100 µM | 80.9 µM | > 100 µM |  | 3.21 µM | 3.79 µM | 3.43 µM | 11.5 µM | 15.5 µM | 59.3 µM | 4.59 µM | > 100 µM | 7.5 µM | 6.66 µM |
| CC(=O)CC(=O)ON(C)C(C)=O |  | > 100 µM | > 100 µM | > 100 µM | > 100 µM | > 100 µM | > 100 µM | > 100 µM | 56.4 µM |  |  |  |  |  |  |  |  |  |  |  |
| CCOC(=O)NC(=O)c1cn(CC(=O)NCC(=O)NCC(=O)N2CCN(CCn3c(C)nc(C(N)=O)c3N)CC2)c(=O)[nH]c1=O | > 100 µM | > 100 µM | > 100 µM | > 100 µM |  | > 100 µM | > 100 µM | > 100 µM | > 100 µM |  |  |  |  |  |  | > 100 µM |  |  |  |  |
| Clc1cc2nc[nH]c2cc1Cl | > 100 µM | > 100 µM | > 100 µM | > 100 µM |  | > 100 µM | > 100 µM | > 100 µM |  |  |  |  |  |  |  | > 100 µM |  |  |  |  |
| OCC(O)C(O)C(O)c1nn[nH]n1 (centres undefined) |  |  | > 100 µM | > 100 µM |  | > 100 µM | > 100 µM |  |  |  |  |  |  |  |  | > 100 µM |  |  |  |  |
| CC12CCC(=O)N1c1cc([N+](=O)[O-])ccc1N2 (centres undefined) | > 100 µM |  | > 100 µM | > 100 µM | > 100 µM | > 100 µM | > 100 µM | > 100 µM | > 100 µM |  |  |  |  |  |  | > 100 µM |  |  |  |  |
| Clc1cc(Cl)cc(C2SCc3nc4ccccc4n32)c1 (centres undefined) |  |  |  | 45.4 µM | 28.2 µM | 59.3 µM | 29.9 µM | 66.9 µM | 32.4 µM |  |  |  |  |  |  | 46.1 µM |  |  |  |  |
| COc1cc(/C=C/C(=O)c2ccc(F)cc2)ccc1OCCCCOc1cc2c(cc1OC)C(=O)N1CCCC1C=N2 (centres undefined) | 5.48 µM | 9.61 µM | 12.5 µM | > 23.5 µM | 9.21 µM | 12.5 µM | 15.9 µM | > 19.9 µM |  | 0.882 µM | 0.952 µM | 1.47 µM | 1.07 µM | 1.03 µM | 1.33 µM | 12.8 µM | 1.68 µM |  | 0.674 µM | 1.04 µM |
| CCCCCCCCCCCCCCCCCc1cc(Cl)nc(Cl)n1 |  | > 100 µM | > 100 µM | > 100 µM | > 100 µM | > 100 µM | > 100 µM | > 100 µM | > 100 µM |  |  |  |  |  |  | > 100 µM |  |  |  |  |
| O=C1C2=C(C(=O)c3c(O)ccc(O)c31)N(c1cccnc1)Cc1ccccc1O2 | 5.32 µM | 3.23 µM | 6.64 µM |  | 0.367 µM | 2 µM | 1.02 µM | 10.7 µM | 1.39 µM | 2.37 µM | 2.29 µM |  | 0.182 µM | 0.65 µM | 1.54 µM | 4.78 µM | 0.312 µM | 0.399 µM | 1.52 µM | 2.6 µM |
| Cc1cc(Cl)ccc1NC(=O)C1C(=O)C(=O)N(c2ccc(Cl)cc2C)C1=O (centres undefined) | > 100 µM | > 100 µM | > 100 µM | > 100 µM |  | > 100 µM | > 100 µM | 68.1 µM | > 100 µM |  |  |  |  |  |  | > 100 µM |  |  |  |  |
| Cc1cc(N(CCC#N)CCC#N)ccc1/C=C(\NC(=O)/C=C/c1ccccc1)NC(=O)Nc1ccccc1C | > 100 µM | > 100 µM |  | > 100 µM | 63.4 µM | > 100 µM | > 100 µM | > 100 µM | > 100 µM |  |  |  |  |  |  | > 100 µM |  |  |  |  |
| COc1ccc(-c2cnc(SCC(=O)c3c(C)n(C)n(-c4ccccc4)c3=O)n2-c2ccc(OC)cc2)cc1 |  | > 50 µM | > 50 µM | > 50 µM | > 50 µM | > 50 µM | > 50 µM | > 50 µM | > 50 µM |  | 28.9 µM | > 50 µM | > 50 µM | > 50 µM | > 50 µM | > 50 µM | > 50 µM | > 50 µM | 44.9 µM | > 50 µM |
| C[C@]12CC/C(=N\O)C[C@@H]1CC[C@@H]1[C@@H]2CC[C@]2(C)/C(=N/O)CC[C@@H]12 | > 100 µM |  |  | 80.2 µM | 71.4 µM |  | > 100 µM | > 100 µM | > 100 µM | 47.2 µM |  | 45.6 µM | 34.1 µM |  | 32.9 µM | 97 µM | 47.1 µM | 37.6 µM |  | 79.5 µM |
